# Laboratory results taken from US20070172422A1, “Exponential pattern recognition based cellular targeting compositions, methods and anticancer applications” (priority 2001, published 2007).
# What was measured:
# [1] = times more potent than doxorubicin; cited from earlier work
# [2] = system: cells including adriamycin resistant tumor lines; conditions: cited from earlier work
# PSMA = PSMA (Homo sapiens, UniProt Q04609); test: inhibition of the enzymatic activity of PSMA; format: biochemical
# Description: The ability of Compound 8 to inhibit the enzymatic activity of PSMA (and consequently to bind to the enzyme) was evaluated using the method described previously in Ser. No. 09/712,465 Nov. 15, 2000 Glazier, Arnold. “Selective Cellular Targeting: Multifunctional Delivery Vehicles, Multifunctional Prodrugs, Use as Neoplastic Drugs. The IC50 for Compound 8 was 8 nanomolar.
# Chain of PSMA (Q04609 whole entry, species assumed): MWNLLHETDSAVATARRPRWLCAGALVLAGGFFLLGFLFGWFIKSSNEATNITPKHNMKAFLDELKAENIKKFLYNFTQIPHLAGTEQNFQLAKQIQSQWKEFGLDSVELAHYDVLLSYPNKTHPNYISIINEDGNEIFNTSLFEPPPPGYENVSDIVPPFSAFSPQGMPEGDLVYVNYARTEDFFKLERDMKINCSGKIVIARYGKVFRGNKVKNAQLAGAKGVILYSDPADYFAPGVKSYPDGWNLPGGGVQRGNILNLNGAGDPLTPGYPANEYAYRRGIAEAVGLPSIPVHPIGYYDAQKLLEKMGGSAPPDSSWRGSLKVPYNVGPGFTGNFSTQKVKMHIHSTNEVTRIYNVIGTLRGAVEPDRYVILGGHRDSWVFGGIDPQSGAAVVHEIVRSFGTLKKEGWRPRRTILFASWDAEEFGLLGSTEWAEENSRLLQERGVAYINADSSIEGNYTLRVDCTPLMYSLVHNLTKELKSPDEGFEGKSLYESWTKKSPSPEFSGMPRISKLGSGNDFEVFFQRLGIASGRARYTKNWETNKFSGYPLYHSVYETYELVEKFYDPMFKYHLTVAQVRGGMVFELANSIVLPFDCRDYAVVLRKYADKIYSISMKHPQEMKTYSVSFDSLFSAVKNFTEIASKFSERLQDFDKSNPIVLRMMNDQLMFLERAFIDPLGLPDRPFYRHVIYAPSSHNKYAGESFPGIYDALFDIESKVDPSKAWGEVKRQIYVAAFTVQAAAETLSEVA
smiles,measurement,setting,value
COc1cccc2c1C(=O)c1c(O)c3c(c(O)c1C2=O)C[C@@](O)(C(=O)CO)C[C@@H]3O[C@H]1C[C@H](N2C=CCC2)[C@H](O)[C@H](C)O1 [2-pyrrolinodoxorubicin],potency relative to doxorubicin,[1],500-1000 times
CO[C@@H]1[C@H](O)C[C@@H](O[C@@H]2C[C@H](Oc3cc4cc5c(c(O)c4c(O)c3C)C(=O)[C@@H](O[C@H]3C[C@@H](O[C@H]4C[C@@H](O[C@H]6C[C@](C)(O)[C@@H](OC(C)=O)[C@H](C)O6)[C@H](O)[C@@H](C)O4)[C@H](O)[C@@H](C)O3)[C@H]([C@H](OC)C(=O)[C@@H](O)[C@@H](C)O)C5)O[C@H](C)[C@@H]2OC(C)=O)O[C@@H]1C [Chromomycin A3],concentrations at which cytotoxic,[2],subnanomolar concentrations
COc1ccc(C(=O)NCCOCCOCCOCCNC(=O)CCC(NC(=O)NC(CCC(=O)O)C(=O)O)C(=O)O)cc1 (stereo not drawn) [Compound 8],IC50,PSMA,8 nM
